# Experimental data reported in patent publication US10794932B2, “Biosensor for the detection of a biological target, and method for manufacturing the same” (The Governing Council of The University of Toronto, priority 2016, dated 2020).
# Assays:
# [1] = molecular target: T1, TLR1 (Mus musculus, UniProt Q9EPQ1); assay: TLR multiplex sensor, EIS film resistance before/after exposure (Example 5), TLR1 sensor; type: binding; conditions: exposure 20 minutes
# T1 sequence (Q9EPQ1 26-795): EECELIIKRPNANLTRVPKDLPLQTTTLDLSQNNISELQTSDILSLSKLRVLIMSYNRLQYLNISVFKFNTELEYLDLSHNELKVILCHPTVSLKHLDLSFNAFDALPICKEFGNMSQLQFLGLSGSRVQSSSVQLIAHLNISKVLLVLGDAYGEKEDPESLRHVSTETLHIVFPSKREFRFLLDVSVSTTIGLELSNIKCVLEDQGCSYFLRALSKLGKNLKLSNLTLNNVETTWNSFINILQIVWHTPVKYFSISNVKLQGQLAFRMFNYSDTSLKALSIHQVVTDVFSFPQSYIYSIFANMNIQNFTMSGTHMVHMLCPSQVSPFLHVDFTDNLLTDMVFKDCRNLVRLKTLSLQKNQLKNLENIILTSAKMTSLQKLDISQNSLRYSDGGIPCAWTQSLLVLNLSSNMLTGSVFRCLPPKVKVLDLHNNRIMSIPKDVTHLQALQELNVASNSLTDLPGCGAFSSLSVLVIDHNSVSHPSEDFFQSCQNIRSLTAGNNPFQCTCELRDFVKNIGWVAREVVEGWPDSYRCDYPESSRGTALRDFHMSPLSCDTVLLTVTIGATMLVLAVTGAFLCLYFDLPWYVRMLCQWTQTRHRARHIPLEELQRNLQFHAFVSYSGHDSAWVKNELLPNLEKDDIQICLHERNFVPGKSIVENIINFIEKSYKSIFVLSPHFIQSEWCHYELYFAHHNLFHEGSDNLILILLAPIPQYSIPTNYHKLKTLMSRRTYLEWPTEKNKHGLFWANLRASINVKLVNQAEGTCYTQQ
# Method: For each multiplex TLR sensor, 5 separate gold electrodes were used for binding TLR 1 to 5. The 5 modified electrodes/sensors were exposed to the analyte solution and evaluated one by one using potentiostats and electrochemical cells.
# The preparation of each TLR biosensor was evaluated using EIS. It is understood that cyclic voltammetry as well as electrochemical impedance microscopy can also be used for monitoring the modification. […] Ethanolamine was then applied to deactivate unreacted LPA. Due to dissociation of unspecific absorbed TLR, the Rct dropped slightly. Experimental curves were evaluated using a model to obtain the Rct values, which can be seen at FIG. 9. Measurements from at least triplicated samples prepared were used to obtain statistic information.
# The TLR1 sensor was exposed to an E. coli K12 whole-cell buffer solution for 20 minutes. The sensor was then removed, washed thoroughly and characterized in the electrochemical cell measuring the Rct again. The difference in Rct before and after exposure is the response triggered by the target. The same protocol was carried out for all remaining TLRs (TLRs 2-5) to obtain one set of pattern for E. coli K12 (FIGS. 10b to 10e). Multiple sets were investigated for statistical relevance. […]
# [2] = molecular target: T2, rmTLR1 (Mus musculus, UniProt Q9EPQ1); assay: Label-free TLR1 sensor, EIS detection of Pam3CSK4 (Example 7); type: binding; conditions: for delta Rct %: 20 minutes; for Rct: before immersion 10250
# T2 construct: purchased R&D Systems RDS1476TR050
# T2 sequence (Q9EPQ1 26-795): T1 sequence (Q9EPQ1 26-795)
# Method: TLR sensors were prepared using fresh, cleaned gold electrodes. The electrodes were immersed in a 2 mM 1-lipoic acid n-hydroxysuccinimide ester (LPA) ethanol solution for 48 hours at 277 K. The electrodes were then rinsed thoroughly using absolute ethanol and blown dry under nitrogen before incubation in 200 μg/ml rmTLR1, 200 μg/ml rmTLR2 and 200 μg/ml ‘rmTLR1 and 2’ mixture for 72 hours at 277 K. The rmTLR1 and 2 mixture was prepared by mixing 200 μg/ml rmTLR1 and 200 μg/ml rmTLR2 with a volume ratio of 1:1. The final concentration of each component was 100 μg/ml and the total concentration of the combined TLR protein content was 200 μg/ml. Following the supplier's recommended conditions, all TLRs were prepared in PBS buffer (pH˜7.4). The electrodes were rinsed with an excess volume of Milli-Q water and blown dry under nitrogen. An ethanolamine-tris buffer solution was prepared by dissolving 1.2 g of ethanolamine and 0.121 g of Tris base in 20 mL of water, the pH was adjusted to 8.4 using hydrochloric acid. TLR-immobilized electrodes were incubated in the ethanolamine solution for one hour at room temperature in order to block any remaining unreacted LPA amine sites. The fabricated sensors with immobilized, standalone rmTLR3, rmTLR4/MD-2 and rmTLR5, used for the selectivity test, were prepared using the same protocol described above.
# Pam3CSK4 was dissolved in 10 mM HEPES aqueous buffer at pH˜7.4. The blocked rmTLR biosensors were incubated in Pam3CSK4 at various concentrations for 20 minutes. The electrodes were always washed thoroughly with same HEPES buffer (pH˜7.4) after the incubation.
# All electrochemical measurements were carried out using a cell with a three-electrode configuration in an enclosed Faraday cage. CV and EIS measurements were completed using a CHI-660b potentiostat (CH Instruments, Austin, Tex.). rmTLR-modified gold electrodes and platinum (Pt) wire were used as the working electrode and the counter electrode, respectively. A reference electrode (Ag/AgCl/3.0M KCl) and a salt bridge, filled with an agar and 1M KNO3 aqueous solution, were inserted to minimize the diffusion of chloride ions into the electrolyte solution. The agar solution was prepared by dissolving 2.0 grams of agar and 10.1 g KNOB in 100 mL of water. The CV and EIS electrolyte was made in a 10 mM HEPES aqueous buffer at pH˜7.4, which consisted of a 5 mM K4Fe(CN)6/5 mM K3Fe(CN)6 as a redox couple with 1M of NaClO4 as the supporting electrolyte. For consistency, the electrochemical measurements were carried out with open-circuit potentials. EIS experiments were conducted in the frequency range of 100,000 to 0.1 Hz with an amplitude of 5 mV. The experimental EIS curves were evaluated to determine the film resistance using ZSimpWin 2.0 software.
substance,measurement,setting,value
Pam3CSK4,delta Rct %,[1],20%
same,limit of detection,[2],10 µM
same,delta Rct %,[2]; 5 μM,not significant
same,delta Rct %,[2]; 25 μM,59±7%
same,delta Rct %,[2]; 50 μM,98±10%
same,Rct,[2]; after 5 μM,10780 Ω · cm^2
same,Rct,[2]; after 10 μM,12760 Ω · cm^2
same,Rct,[2]; after 25 μM,16840 Ω · cm^2
same,Rct,[2]; after 50 μM,21010 Ω · cm^2
